Experimental data published in ChEMBL document CHEMBL3763048, “Design and discovery of 3-aryl-5-substituted-isoquinolin-1-ones as potent tankyrase inhibitors” (Medchemcomm, 2015).
Active and inactive are the calls of the source. The calls are words filed in the database; no cut-off is given here.

Legend:
[1] = Aqueous solubility of the compound in phosphate buffer at pH 7.4; format: physicochemical
[2] = Intrinsic clearance in mouse liver microsomes assessed per mg of protein; format: ADME; settings: read-out: CLH
SW480 = assay: Induction of cellular DNA damage PARylation in human SW480 cells at >100 uM by Western blot analysis; format: functional, cell-based
[3] = Intrinsic clearance in human liver microsomes assessed per mg of protein; format: ADME; settings: read-out: CLH

| SMILES | solubility [1] [µM] | microsomal CLint [2] [µL/min/mg] | Activity (SW480) | microsomal CLint [3] [µL/min/mg] |
| --- | --- | --- | --- | --- |
| CN(C)Cc1ccc(-c2cc3ccccc3c(=O)[nH]2)cc1 | > 100 | – | – | – |
| Cc1cccc2c(=O)[nH]c(-c3ccc(CN4CCC(N(C)C)CC4)cc3)cc12 | > 100 | 10 | Active | 5 |
| COc1cccc2c(=O)[nH]c(-c3ccc(CN(C)C)cc3)cc12 | > 100 | – | – | – |
